Reference: ChEMBL document CHEMBL3526122, “Identification of UDP-glucuronosyltransferases responsible for the glucuronidation of darexaban, an oral factor Xa inhibitor, in human liver and intestine” (Drug Metab Dispos, 2012)

Tests used:
[1] = molecular target: T1, UDP-glucuronosyltransferase 1A9 (Homo sapiens, UniProt O60656); assay: Activity of human recombinant UGT1A9 expressed in baculovirus-infected insect cells assessed as intrinsic clearance for enzyme-mediated glucuronide formation per mg of protein at 1 to 250 uM after 5 mins by Michaelis-Menten plot analysis in presence of UDPGA; type: ADME
T1 sequence (O60656 whole entry): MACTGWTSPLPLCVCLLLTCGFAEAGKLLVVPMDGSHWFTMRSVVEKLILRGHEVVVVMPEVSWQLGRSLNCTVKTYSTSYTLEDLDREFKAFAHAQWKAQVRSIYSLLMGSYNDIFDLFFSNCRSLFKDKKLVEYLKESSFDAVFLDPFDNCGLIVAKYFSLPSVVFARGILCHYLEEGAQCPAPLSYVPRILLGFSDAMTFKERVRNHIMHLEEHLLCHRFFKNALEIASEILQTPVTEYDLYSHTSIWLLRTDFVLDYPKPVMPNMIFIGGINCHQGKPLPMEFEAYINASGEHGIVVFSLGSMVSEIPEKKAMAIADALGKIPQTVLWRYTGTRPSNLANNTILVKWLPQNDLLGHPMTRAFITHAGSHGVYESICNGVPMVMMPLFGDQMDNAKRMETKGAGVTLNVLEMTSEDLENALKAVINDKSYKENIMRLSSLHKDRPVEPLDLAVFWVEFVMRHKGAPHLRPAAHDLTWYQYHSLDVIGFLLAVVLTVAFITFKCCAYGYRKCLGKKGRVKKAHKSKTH

[2] = Substrate inhibition in human intestinal microsomes after 5 mins by Michaelis-Menten plot analysis in presence of UDPGA; type: ADME, Intestine, Microsome
[3] = molecular target: T2, UDP-glucuronosyltransferase 1A8 (Homo sapiens, UniProt Q9HAW9); assay: Activity of human recombinant UGT1A8 expressed in baculovirus-infected insect cells assessed as enzyme-mediated glucuronidation per mg of protein after 10 mins in presence of UDPGA; type: ADME
T2 sequence (Q9HAW9 whole entry): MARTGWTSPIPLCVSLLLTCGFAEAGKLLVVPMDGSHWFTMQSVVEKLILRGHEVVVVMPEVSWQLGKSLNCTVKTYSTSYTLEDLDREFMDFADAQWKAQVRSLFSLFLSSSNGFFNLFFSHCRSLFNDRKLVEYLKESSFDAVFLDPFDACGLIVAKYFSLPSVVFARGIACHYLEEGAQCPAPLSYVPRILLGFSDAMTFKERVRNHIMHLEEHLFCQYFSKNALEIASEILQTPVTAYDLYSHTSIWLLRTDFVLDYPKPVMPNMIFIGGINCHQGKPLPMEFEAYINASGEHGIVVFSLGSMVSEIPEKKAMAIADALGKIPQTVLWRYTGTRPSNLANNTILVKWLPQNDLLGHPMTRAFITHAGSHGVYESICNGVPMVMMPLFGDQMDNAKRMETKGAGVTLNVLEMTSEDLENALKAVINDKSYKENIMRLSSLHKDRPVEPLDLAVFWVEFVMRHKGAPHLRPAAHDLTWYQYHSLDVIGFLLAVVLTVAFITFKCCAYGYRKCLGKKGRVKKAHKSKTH

[4] = molecular target: T3, UDP-glucuronosyltransferase 1A6 (Homo sapiens, UniProt P19224); assay: Activity of human recombinant UGT1A6 expressed in baculovirus-infected insect cells assessed as enzyme-mediated glucuronidation per mg of protein after 10 mins in presence of UDPGA; type: ADME
T3 sequence (P19224 whole entry): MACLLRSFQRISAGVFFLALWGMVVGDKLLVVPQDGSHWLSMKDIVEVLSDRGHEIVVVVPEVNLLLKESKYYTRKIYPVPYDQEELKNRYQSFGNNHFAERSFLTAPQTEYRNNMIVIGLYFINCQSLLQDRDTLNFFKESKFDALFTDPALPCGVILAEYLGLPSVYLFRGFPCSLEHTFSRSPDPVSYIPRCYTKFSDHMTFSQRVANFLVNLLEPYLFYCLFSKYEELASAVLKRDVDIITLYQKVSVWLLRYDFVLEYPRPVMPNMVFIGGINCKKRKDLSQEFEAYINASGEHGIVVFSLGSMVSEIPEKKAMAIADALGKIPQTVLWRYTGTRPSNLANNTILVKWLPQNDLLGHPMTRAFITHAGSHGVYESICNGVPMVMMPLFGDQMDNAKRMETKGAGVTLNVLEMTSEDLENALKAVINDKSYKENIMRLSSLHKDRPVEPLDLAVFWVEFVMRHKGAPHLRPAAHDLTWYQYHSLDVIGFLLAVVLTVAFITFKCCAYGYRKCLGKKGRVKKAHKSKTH

[5] = molecular target: T2, UDP-glucuronosyltransferase 1A8; assay: Activity of human recombinant UGT1A8 expressed in baculovirus-infected insect cells assessed as intrinsic clearance for enzyme-mediated glucuronide formation per mg of protein at 1 to 250 uM after 10 mins in presence of UDPGA; type: ADME
Liver microsome [6] = assay: Drug metabolism in human liver microsomes assessed as glucuronidation per mg of protein after 10 mins by Michaelis-Menten plot analysis in presence of UDPGA and 2% fatty acid free BSA; type: ADME
Liver microsome [7] = assay: Unbound intrinsic clearance in human liver microsomes assessed per mg of protein after 10 mins in presence of UDPGA and absence of fatty acid free BSA; type: ADME
Liver microsome [8] = assay: Unbound intrinsic clearance in human liver microsomes assessed per mg of protein after 10 mins in presence of UDPGA and 0.1% fatty acid free BSA; type: ADME
[9] = molecular target: T1, UDP-glucuronosyltransferase 1A9; assay: Activity of human recombinant UGT1A9 expressed in baculovirus-infected insect cells assessed as unbound intrinsic clearance for enzyme-mediated glucuronidation per mg of protein after 5 mins by Michaelis-Menten plot analysis in presence of UDPGA and 0.1% fatty acid free BSA; type: ADME
[10] = Ratio of Km for drug metabolism in human liver microsomes to Km for human recombinant UGT1A9-mediated drug metabolism; type: ADME; conditions: recombinant enzyme
[11] = Drug metabolism in human intestinal microsomes assessed as glucuronidation after 10 mins by Michaelis-Menten plot; type: ADME, Intestine, Microsome
[12] = Fraction unbound in human liver microsomes at 1 to 250 uM after 10 mins by ultrafiltration method in absence of fatty acid free BSA; type: ADME
[13] = Fraction unbound incubation mixture containing human recombinant UGT1A9 at 1 to 250 uM after 10 mins by ultrafiltration method in presence of 0.5% fatty acid free BSA
[14] = Drug metabolism in human liver microsomes assessed as glucuronidation after 10 mins by Michaelis-Menten plot analysis in presence of UDPGA and 0.5% fatty acid free BSA; type: ADME; conditions: read-out: Km(unbound)

Compound `COc1ccc(C(=O)Nc2cccc(O)c2NC(=O)c2ccc(N3CCCN(C)CC3)cc2)cc1.O=C(O)CCC(=O)O` has a clearance [1] of 132 µL/min/mg, a Ki [2] of 463 µM and a Drug metabolism [3] of 0.393 nmol/min/mg. It also gave a Drug metabolism [4] of less than 0.01 nmol/min/mg, a clearance [5] of 51.5 µL/min/mg and a Vmax (Liver microsome [6]) of 3.14 nmol/min/mg. For the same compound, the CL free (Liver microsome [7]) was 17.4 µL/min/mg, the CL free (Liver microsome [8]) was 184 µL/min/mg and the CL free [9] was 250 µL/min/mg. The Ratio [10] was 4.3, the Km at 10 min [11] was 27.3 µM and the fraction unbound at 10 min, up to 250 µM [12] was 0.873. It also gave a Fu [13] of 0.553 and a Km at 10 min [14] of 17.7 µM.
